For orientation: IC50 means the point on the concentration scale where inhibition reaches its midpoint.

This is an account of results in patent US9636418B2 (priority 2013, dated 2017).

Common to all, as to experiment: cell-based
The target in one test is hNav1.7 (Homo sapiens, UniProt Q15858). The conditions noted are these: IonWorks Quattro; read-out: IC50 Nav1.7.
Another test addresses hNav1.5 (Homo sapiens, UniProt Q14524). As to conditions: IonWorks Quattro; read-out: IC50 Nav1.5.
The target in a further test is hNav1.3 (Homo sapiens, UniProt Q9NY46). The conditions noted are these: IonWorks Quattro; read-out: IC50 Nav1.3. A general note: In patch-clamp work, channel activity is measured electrically.
The target in a further test is hNav1.4 (Homo sapiens, UniProt P35499). The conditions noted are these: for IC50: IonWorks Quattro, read-out: IC50 Nav1.4; for Nav1.4/Nav1.7: ratio of IonWorks Quattro IC50 values.
hNav1.4, sequence (P35499 whole entry): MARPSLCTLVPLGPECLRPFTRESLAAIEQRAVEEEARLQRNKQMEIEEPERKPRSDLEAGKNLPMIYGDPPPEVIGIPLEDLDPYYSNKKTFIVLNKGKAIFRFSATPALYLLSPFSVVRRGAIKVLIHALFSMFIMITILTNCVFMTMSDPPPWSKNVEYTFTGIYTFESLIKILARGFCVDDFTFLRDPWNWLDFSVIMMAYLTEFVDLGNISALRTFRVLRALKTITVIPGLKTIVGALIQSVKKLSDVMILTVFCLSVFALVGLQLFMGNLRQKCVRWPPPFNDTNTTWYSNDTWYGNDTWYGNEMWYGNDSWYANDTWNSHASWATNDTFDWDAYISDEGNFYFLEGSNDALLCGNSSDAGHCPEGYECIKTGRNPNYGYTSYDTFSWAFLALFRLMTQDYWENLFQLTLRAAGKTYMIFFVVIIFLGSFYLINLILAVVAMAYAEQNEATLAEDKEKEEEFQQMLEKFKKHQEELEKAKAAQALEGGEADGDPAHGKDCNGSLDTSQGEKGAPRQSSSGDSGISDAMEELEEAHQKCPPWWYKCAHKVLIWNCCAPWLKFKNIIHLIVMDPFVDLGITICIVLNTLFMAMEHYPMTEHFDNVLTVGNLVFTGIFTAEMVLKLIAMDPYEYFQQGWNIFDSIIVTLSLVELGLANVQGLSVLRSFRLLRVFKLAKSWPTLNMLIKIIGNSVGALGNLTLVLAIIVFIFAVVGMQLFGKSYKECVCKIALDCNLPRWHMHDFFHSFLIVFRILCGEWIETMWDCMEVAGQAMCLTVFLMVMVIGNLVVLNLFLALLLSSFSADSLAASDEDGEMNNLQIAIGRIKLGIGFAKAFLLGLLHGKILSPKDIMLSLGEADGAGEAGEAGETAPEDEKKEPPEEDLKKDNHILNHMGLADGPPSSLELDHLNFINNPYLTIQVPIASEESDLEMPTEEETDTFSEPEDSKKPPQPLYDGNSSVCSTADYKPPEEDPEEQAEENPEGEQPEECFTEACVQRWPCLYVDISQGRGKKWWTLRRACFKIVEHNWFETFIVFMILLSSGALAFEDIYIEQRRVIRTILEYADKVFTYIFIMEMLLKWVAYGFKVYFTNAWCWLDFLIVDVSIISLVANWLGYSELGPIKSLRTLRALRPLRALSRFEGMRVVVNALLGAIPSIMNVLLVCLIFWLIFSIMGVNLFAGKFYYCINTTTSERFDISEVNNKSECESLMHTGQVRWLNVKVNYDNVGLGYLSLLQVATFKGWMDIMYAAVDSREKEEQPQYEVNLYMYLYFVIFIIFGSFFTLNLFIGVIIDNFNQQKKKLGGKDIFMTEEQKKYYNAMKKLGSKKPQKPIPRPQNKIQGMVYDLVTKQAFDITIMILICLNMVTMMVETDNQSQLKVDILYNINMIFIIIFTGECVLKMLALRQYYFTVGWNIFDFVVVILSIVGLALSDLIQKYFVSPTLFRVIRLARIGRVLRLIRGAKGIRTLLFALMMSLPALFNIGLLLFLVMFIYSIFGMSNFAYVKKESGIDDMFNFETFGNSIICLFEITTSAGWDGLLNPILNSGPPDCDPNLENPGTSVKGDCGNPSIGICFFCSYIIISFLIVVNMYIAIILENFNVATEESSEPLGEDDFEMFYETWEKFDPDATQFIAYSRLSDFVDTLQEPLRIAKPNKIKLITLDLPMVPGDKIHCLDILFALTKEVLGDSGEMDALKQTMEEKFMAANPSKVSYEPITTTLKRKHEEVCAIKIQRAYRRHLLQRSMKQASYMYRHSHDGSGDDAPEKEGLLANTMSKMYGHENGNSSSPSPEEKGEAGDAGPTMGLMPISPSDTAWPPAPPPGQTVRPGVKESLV

hNav1.7, sequence (Q15858 whole entry): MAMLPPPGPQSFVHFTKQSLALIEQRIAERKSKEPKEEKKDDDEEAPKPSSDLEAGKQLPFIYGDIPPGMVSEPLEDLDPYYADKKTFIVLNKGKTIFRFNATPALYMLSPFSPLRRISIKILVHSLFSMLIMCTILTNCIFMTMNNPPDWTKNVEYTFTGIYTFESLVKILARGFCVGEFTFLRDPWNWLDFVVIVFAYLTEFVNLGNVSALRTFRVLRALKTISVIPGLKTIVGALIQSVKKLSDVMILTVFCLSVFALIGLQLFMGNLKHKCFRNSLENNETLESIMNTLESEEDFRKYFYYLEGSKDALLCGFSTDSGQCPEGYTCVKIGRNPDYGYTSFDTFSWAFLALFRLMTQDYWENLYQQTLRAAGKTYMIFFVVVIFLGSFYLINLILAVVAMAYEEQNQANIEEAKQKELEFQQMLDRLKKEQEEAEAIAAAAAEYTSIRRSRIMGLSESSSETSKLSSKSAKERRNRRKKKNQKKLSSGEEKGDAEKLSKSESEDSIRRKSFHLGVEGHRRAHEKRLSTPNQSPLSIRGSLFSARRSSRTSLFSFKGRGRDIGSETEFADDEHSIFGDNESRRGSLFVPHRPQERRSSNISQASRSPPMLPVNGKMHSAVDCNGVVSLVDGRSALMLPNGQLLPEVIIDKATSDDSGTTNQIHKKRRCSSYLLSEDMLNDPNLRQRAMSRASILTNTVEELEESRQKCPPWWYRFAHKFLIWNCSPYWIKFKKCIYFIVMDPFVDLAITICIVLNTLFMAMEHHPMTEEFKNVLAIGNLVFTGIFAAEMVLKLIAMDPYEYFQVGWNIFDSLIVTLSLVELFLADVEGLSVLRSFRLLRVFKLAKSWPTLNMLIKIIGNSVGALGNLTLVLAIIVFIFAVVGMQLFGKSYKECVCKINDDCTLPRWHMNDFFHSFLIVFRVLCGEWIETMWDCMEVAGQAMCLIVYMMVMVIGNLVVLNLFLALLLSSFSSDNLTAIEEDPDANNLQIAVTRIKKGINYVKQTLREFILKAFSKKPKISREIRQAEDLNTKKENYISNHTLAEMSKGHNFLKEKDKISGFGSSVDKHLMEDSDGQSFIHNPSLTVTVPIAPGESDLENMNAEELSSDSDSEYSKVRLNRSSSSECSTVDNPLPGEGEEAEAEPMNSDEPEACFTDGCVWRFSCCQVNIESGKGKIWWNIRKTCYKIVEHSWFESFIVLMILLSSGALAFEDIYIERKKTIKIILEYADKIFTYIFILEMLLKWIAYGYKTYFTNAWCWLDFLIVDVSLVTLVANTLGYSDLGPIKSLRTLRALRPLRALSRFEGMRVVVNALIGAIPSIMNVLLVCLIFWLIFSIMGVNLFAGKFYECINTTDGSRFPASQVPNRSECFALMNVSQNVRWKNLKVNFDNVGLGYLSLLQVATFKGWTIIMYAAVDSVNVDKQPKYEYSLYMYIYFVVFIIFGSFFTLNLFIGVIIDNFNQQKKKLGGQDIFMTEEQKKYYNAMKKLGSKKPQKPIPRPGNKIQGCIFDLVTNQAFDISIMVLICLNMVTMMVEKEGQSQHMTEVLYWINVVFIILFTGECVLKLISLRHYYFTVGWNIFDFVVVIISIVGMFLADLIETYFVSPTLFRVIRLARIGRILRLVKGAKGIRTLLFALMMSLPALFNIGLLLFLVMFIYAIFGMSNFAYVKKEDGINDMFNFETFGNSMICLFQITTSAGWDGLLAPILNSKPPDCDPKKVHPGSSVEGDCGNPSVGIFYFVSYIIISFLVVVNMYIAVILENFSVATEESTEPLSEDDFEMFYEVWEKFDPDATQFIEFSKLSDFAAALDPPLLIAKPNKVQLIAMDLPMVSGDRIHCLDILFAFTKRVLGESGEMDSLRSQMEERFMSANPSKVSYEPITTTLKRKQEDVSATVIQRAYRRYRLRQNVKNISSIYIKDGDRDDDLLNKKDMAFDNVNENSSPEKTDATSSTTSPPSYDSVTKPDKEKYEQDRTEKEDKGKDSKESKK

As for `CC[C@H](C)[C@H](NC(=O)[C@H](Cc1cn(CCCOCCOCCOCCOCCOCCOCCOCCOCCOCCOCCN)nn1)NC(=O)[C@H](CCCCN)NC(=O)[C@H](CCCNC(=N)N)NC(=O)[C@@H]1CSSC[C@@H]2NC(=O)[C@H](C)NC(=O)[C@H](CCCNC(=N)N)NC(=O)[C@H](CCCCN)NC(=O)[C@H](CO)NC(=O)[C@H](CC(=O)O)NC(=O)[C@@H]3CSSC[C@H](NC(=O)[C@H](CCC(=O)O)NC(=O)[C@H](CC(C)C)NC(=O)CNC(=O)[C@H](CCC(=O)O)NC(=O)[C@H](CSSC[C@H](NC(=O)[C@@H](N)Cc4ccc(O)cc4)C(=O)N[C@@H](CCC(N)=O)C(=O)N[C@@H](CCCCN)C(=O)N[C@@H](Cc4c[nH]c5ccccc45)C(=O)N[C@@H](CCSC)C(=O)N[C@@H](Cc4c[nH]c5ccccc45)C(=O)N[C@@H]([C@@H](C)O)C(=O)N3)NC2=O)C(=O)N[C@@H](CCCCN)C(=O)N[C@@H](CC(C)C)C(=O)N[C@@H](Cc2c[nH]c3ccccc23)C(=O)N1)C(N)=O` [compound 187], the IC50 was 1.77 µM at hNav1.7, 15.4 µM at hNav1.5, greater than 5 µM at hNav1.3 and greater than 5 µM on hNav1.4. For the same compound, the Nav1.4/Nav1.7 at hNav1.4 is given as 3.
As to `CC[C@H](C)[C@H](NC(=O)[C@H](Cc1ccc(O)cc1)NC(=O)[C@H](CCCCN)NC(=O)[C@H](CCCNC(=N)N)NC(=O)[C@@H]1CSSC[C@@H]2NC(=O)[C@H](C)NC(=O)[C@H](CCCNC(=N)N)NC(=O)[C@H](CCCCN)NC(=O)[C@H](CO)NC(=O)[C@H](CC(=O)O)NC(=O)[C@@H]3CSSC[C@H](NC(=O)[C@H](CCC(=O)O)NC(=O)[C@H](CC(C)C)NC(=O)CNC(=O)[C@H](CCC(=O)O)NC(=O)[C@H](CSSC[C@H](NC(=O)[C@@H](N)Cc4ccc(O)cc4)C(=O)N[C@@H](CCC(N)=O)C(=O)N[C@@H](CCCCN)C(=O)N[C@@H](C(C)C)C(=O)N[C@@H](CCSC)C(=O)N[C@@H](Cc4c[nH]c5ccccc45)C(=O)N[C@@H]([C@@H](C)O)C(=O)N3)NC2=O)C(=O)N[C@@H](CCCCN)C(=O)N[C@@H](CC(C)C)C(=O)N[C@@H](Cc2c[nH]c3ccccc23)C(=O)N1)C(N)=O` [compound 195], the IC50 at hNav1.7 was 3.8 µM; on hNav1.5, greater than 5 µM; at hNav1.3, greater than 5 µM; on hNav1.4, greater than 5 µM.
As to `CCC[C@@H]1NC(=O)[C@H](CC(C)C)NC(=O)CNC(=O)[C@H](CCC(=O)O)NC(=O)[C@@H]2CSSC[C@H](NC(=O)[C@@H](N)Cc3ccc(O)cc3)C(=O)N[C@@H](CCC(N)=O)C(=O)N[C@@H](CCCCN)C(=O)N[C@@H](Cc3c[nH]c4ccccc34)C(=O)N[C@@H](CCSC)C(=O)N[C@@H](Cc3c[nH]c4ccccc34)C(=O)N[C@@H]([C@@H](C)O)C(=O)N[C@H]3CSSC[C@H](NC1=O)C(=O)N[C@@H](CCCCN)C(=O)N[C@@H](CC(C)C)C(=O)N[C@@H](Cc1c[nH]c4ccccc14)C(=O)N[C@H](C(=O)N[C@@H](CCCNC(=N)N)C(=O)N[C@@H](CCCCN)C(=O)N[C@H](C(=O)N[C@H](C(N)=O)[C@@H](C)CC)[C@@H](C)CC)CSSC[C@H](NC(=O)[C@H](C)NC(=O)[C@H](CCCNC(=N)N)NC(=O)[C@H](CCCCN)NC(=O)[C@H](CO)NC(=O)[C@H](CC(=O)O)NC3=O)C(=O)N2` [compound 123], the IC50 on hNav1.7 is 0.17 µM; at hNav1.5, 10.4 µM; on hNav1.3, greater than 5 µM; at hNav1.4, 3.1 µM. In addition, the Nav1.4/Nav1.7 at hNav1.4 is given as 19.
